Patent US7030265B2, “Retinol derivatives, the method of preparations and the uses thereof” (Chebigen, Inc., priority 2001, dated 2006)

What was measured:
Format in all cases: cell-based
retinoic acid receptor β = target: T1, retinoic acid receptor β (Homo sapiens, UniProt P10826); assay: RAR activity test, DR5-tk-CAT reporter in HaCAT cells; details: 1 μM, CAT ELISA, FIG. 2 (A)
T1 construct: expressed in transfected cells; b135 says HaCAT
T1 sequence (P10826 1-455): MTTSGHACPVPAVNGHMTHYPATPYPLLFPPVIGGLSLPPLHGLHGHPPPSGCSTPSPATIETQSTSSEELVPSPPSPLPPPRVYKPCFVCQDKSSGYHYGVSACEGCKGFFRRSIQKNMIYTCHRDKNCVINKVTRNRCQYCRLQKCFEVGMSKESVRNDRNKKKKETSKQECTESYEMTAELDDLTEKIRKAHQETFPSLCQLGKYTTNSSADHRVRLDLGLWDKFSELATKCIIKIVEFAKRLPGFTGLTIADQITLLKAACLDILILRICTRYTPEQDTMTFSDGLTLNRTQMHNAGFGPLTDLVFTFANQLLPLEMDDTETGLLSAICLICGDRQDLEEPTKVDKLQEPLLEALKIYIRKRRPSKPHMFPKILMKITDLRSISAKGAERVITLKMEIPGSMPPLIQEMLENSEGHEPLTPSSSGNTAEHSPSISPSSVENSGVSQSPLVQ
Excerpt: (§1) To analyze the effects of retinol-(N-formyl-aspartam) on the activity of retinoic acid receptor, skin cancer (HaCAT) cell lines were utilized to measure the activity of retinoic acid receptor/retinoid X receptor.
(§2) Recombinant DNA, DR5-tk-CAT or DR1-tk-CAT consisting of DR1 or DR5, effectors of retinoic acid receptor/retinoid X receptor, thymine kinase promoter, and CAT(chloramphenicol acetyl transferase) were mixed with the plasmid DNA expressing retinoic acid receptor α, β, ? or retinoid X receptor α, β, ? to cotransfect skin cancer (HaCAT) cell line with lipofectamine (GibcoBRL). The cotransfected cell lines were cultured for 1 day on DMEM/10% FBS media, each retinol derivatives (1 μM) were added and cultured for one more day, 5% CO2, 37° C. The cells were washed with phosphate-buffered saline (PBS), and the proteins were isolated from each cells, and the activity of β-galactosidase and protein contents were measured to determine transfection efficacy, the transcription level of RAR or RXR receptor were measured with CAT ELISA (Roche Molecular Biochemical, Mannheim, Germany).
To determine the effect of retinol-(N-formyl-aspartam) on retinoic acid receptors, each retinoic acid receptor (α, β, or ? ) expression vector and activity measuring DR5-tk-CAT plasmid were introduced with liposome. After treating cells with retinol-(N-formyl-aspartam), the cell extracts were isolated. The expression level of CAT were measured with CAT ELISA to determine the effect of retinol-(N-formyl-aspartam) on the activity of retinoic acid receptors.

retinoid X receptor α = target: T2, retinoid X receptor α (Homo sapiens, UniProt P19793); assay: RXR activity test, DR1-tk-CAT reporter in HaCAT cells; details: 1 μM, CAT ELISA, FIG. 2 (B)
T2 construct: expressed in transfected cells; host or cells: HaCAT
T2 sequence (P19793 1-462): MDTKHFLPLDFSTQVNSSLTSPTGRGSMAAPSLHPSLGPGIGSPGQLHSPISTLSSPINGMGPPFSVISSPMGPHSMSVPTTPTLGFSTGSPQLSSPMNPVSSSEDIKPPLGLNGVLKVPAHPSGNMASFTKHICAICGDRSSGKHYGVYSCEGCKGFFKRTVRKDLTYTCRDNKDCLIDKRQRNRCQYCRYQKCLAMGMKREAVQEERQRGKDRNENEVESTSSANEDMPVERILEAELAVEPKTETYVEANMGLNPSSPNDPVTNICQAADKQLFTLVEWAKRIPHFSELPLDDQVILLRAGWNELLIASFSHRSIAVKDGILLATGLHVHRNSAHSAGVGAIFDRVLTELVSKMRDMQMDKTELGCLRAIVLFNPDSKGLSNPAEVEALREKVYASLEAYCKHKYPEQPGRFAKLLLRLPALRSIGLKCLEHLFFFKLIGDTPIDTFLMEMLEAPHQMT
Excerpt: as §1, §2

retinoid X receptor β = target: T3, retinoid X receptor β (Homo sapiens, UniProt P28702); assay: as above; details: 1 μM, CAT ELISA, FIG. 2 (B)
T3 construct: expressed in transfected cells; host or cells: HaCAT
T3 sequence (P28702 1-533): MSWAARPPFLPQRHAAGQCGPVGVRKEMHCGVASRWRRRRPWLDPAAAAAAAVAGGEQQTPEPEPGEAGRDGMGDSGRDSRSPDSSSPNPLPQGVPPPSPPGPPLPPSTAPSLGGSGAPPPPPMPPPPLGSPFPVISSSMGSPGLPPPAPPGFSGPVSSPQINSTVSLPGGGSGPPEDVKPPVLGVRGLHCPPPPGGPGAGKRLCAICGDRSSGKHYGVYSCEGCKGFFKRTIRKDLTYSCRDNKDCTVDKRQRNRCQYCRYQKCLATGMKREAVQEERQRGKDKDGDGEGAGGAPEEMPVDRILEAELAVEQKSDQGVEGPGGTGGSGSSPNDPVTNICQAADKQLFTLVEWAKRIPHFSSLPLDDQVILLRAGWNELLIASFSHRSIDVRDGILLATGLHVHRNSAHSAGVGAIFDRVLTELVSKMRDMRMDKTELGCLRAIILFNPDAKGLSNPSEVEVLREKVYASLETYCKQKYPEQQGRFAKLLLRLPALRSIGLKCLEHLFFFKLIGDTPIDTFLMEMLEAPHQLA
Excerpt: as §1, §2

retinoid X receptor γ = target: T4, retinoid X receptor γ (Homo sapiens, UniProt P48443); assay: as above; details: 1 μM, CAT ELISA, FIG. 2 (B)
T4 construct: expressed in transfected cells; host or cells: HaCAT
T4 sequence (P48443 1-463): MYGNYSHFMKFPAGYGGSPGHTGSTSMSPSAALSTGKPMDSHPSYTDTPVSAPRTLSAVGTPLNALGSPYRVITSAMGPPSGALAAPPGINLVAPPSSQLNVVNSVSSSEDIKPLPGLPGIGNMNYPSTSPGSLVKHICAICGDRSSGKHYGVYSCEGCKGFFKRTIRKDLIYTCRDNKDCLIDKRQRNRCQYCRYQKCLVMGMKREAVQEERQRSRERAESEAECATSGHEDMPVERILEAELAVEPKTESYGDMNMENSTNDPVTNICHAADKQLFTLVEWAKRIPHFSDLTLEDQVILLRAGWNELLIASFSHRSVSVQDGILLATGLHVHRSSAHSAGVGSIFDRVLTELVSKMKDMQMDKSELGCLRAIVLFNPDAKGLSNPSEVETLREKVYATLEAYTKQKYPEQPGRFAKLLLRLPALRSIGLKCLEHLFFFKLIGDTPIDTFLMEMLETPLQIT
Excerpt: as §1, §2

For `COC(=O)C(Cc1ccccc1)NC(=O)[C@H](CC(=O)OC/C=C(C)/C=C/C=C(C)/C=C/C1=C(C)CCCC1(C)C)NC=O` (stereo partly drawn) [retinol-(N-formyl-aspartam), (2E,4E,6E,8E)-3,7-dimethyl-9-(2,6,6-trimethyl-1-cyclohexenyl)-2,4,6,8-nonatetraenyl(3S)-4-[(1-benzyl-2-methoxy-2-oxoethyl)amino]-3-formylamino-4-oxobutanoate], the “activation of retinoic acid receptor β” value (retinoic acid receptor β) was “weak activation”, the “activation of retinoid X receptor α” value (retinoid X receptor α) was “no activation” and the “activation of retinoid X receptor β” value (retinoid X receptor β) was “no activation”. The “activation of retinoid X receptor γ” value (retinoid X receptor γ) was “no activation”.
